Measured values published in patent US12404289B2 (Gilead Sciences, Inc., priority 2020, dated 2025).
Where two headings read alike, the source gives them in different places.

Columns and labels:
Assay type in all cases: cell-based
SARS-CoV-2 = SARS-CoV-2 antiviral assay (A549-hACE2, Nano luciferase); details: A549-hACE2 cells, SARS-CoV2-Nano, MOI 0.025, 48 h, Table 4, read-out: EC50 SARS CoV2
[1] = system: Respiratory syncytial virus (RSV) strain A2; experiment: Hep-2 RSV2 384-well assay (EC50-HEP2-384); details: HEp-2 cells, RSV A2, MOI=4, 4 days
[2] = system: Recombinant respiratory syncytial virus expressing the firefly luciferase protein (RSV-Fluc); experiment: microbe, parasite or virus in culture; details: Table 4
[3] = system: Respiratory syncytial virus (RSV) strain A2; experiment: RSV antiviral assay (HEp-2, 96 well); details: Table 3
[4] = read-out: EC50 RSVFluc NHBE 96, NHBE cells, RSV-Fluc, MOI of 0.1, three days, 96 well
[5] = Severe acute respiratory syndrome coronavirus 2, 48 h
[6] = human respiratory syncytial virus, HEp-2, 96 h, Table 3
[7] = human respiratory syncytial virus, NHBE, 72 h, read-out: EC50 RSVFluc NHBE 96, NHBE cells, RSV-Fluc, MOI of 0.1, three days, 96 well
[8] = human respiratory syncytial virus, HEp-2, 96 h, read-out: EC50 RSV HEP2 96, HEp-2 cells, RSV A2, MOI=4, 4 days, 96 well
[9] = read-out: EC50 RSV HEP2 96, HEp-2 cells, RSV A2, MOI=4, 4 days, 96 well

Row | SMILES | EC50 (SARS-CoV-2) | EC50 [2, 4] | EC50 (SARS-CoV-2; [5]) | EC50 [2, 7] | other results
1 | CCC(=O)O[C@H]1[C@@H](OC(=O)CC)[C@](C#N)(c2ccc3c(N)ncnn23)O[C@@H]1COP(=O)(N[C@@H](C)C(=O)OC1CCC1)Oc1ccc(C(C)(C)C)cc1 (single isomer, unassigned) [Example 32b] | 59.7 nM | 10.7 nM |  |  | EC50 ([1]; Table 3): 30 nM
2 | CC(C)C(=O)O[C@H]1[C@@H](OC(=O)C(C)C)[C@](C#N)(c2ccc3c(N)ncnn23)O[C@@H]1COP(=O)(N[C@@H](C)C(=O)OC1CCC1)Oc1ccccc1 (single isomer, unassigned) [Example 21a] | 125 nM | 37.4 nM |  |  | EC50 ([1]; Table 1): 92 nM
3 | COC(C)(C)COC(=O)[C@H](C)NP(=O)(OC[C@H]1O[C@@](C#N)(c2ccc3c(N)ncnn23)[C@H](OC(=O)C(C)C)[C@@H]1OC(=O)C(C)C)Oc1cccc2ccccc12 (stereo partly drawn) [Example 133, (2R,3R,4R,5R)-2-(4-aminopyrrolo[2,1-f][1,2,4]triazin-7-yl)-2-cyano-5-((((((S)-1-(2-methoxy-2-methylpropoxy)-1-oxopropan-2-yl)amino)(naphthalen-1-yloxy)phosphoryl)oxy)methyl)tetrahydrofuran-3,4-diyl bis(2-methylpropanoate)] |  |  | 36.9 nM | 13.8 nM | EC50 [1, 6]: 33.6 nM
4 | CC(=O)O[C@H]1[C@@H](OC(C)=O)[C@](C#N)(c2ccc3c(N)ncnn23)O[C@@H]1COP(=O)(N[C@@H](C)C(=O)OC1CCC1)Oc1ccc(C(C)(C)C)cc1 (single isomer, unassigned) [Example 33b] | 231 nM | 12.2 nM |  |  | EC50 ([1]; Table 3): 27.2 nM
5 | CC(C)C(=O)O[C@H]1[C@@H](OC(=O)C(C)C)[C@](C#N)(c2ccc3c(N)ncnn23)O[C@@H]1COP(=O)(N[C@@H](C)C(=O)OCC1CC1)Oc1ccc(C(C)(C)C)cc1 (stereo partly drawn) [Example 104a, (2R,3R,4R,5R)-2-(4-aminopyrrolo[2,1-f][1,2,4]triazin-7-yl)-5-((((4-(tert-butyl)phenoxy)(((S)-1-(cyclopropylmethoxy)-1-oxopropan-2-yl)amino)phosphoryl)oxy)methyl)-2-cyanotetrahydrofuran-3,4-diyl bis(2-methylpropanoate)] |  |  | 234 nM | 10.8 nM | EC50 [1, 6]: 39 nM
6 | CCOC(=O)[C@H](C)NP(=O)(OC[C@H]1O[C@@](C#N)(c2ccc3c(N)ncnn23)[C@H](OC(=O)C(C)C)[C@@H]1OC(=O)C(C)C)Oc1ccc(C(C)(C)C)cc1 (single isomer, unassigned) [Example 18b] | 332 nM | 15.1 nM |  |  | EC50 ([1]; Table 1): 75 nM
7 | CCOC(=O)[C@H](C)NP(=O)(OC[C@H]1O[C@@](C#N)(c2ccc3c(N)ncnn23)[C@H](OC(=O)C(C)C)[C@@H]1OC(=O)C(C)C)Oc1cccc2ccccc12 (stereo partly drawn) [Example 67, [(2R,3R,4R,5R)-5-(4-aminopyrrolo[2,1-f][1,2,4]triazin-7-yl)-5-cyano-2-[[[[(1S)-2-ethoxy-1-methyl-2-oxo-ethyl]amino]-(1-naphthyloxy)phosphoryl]oxymethyl]-4-(2-methylpropanoyloxy)tetrahydrofuran-3-yl] 2-methylpropanoate] |  |  | 27.2 nM | 8.72 nM | EC50 [3, 8]: 18 nM
8 | CCOC(=O)[C@H](C)NP(=O)(OC[C@H]1O[C@@](C#N)(c2ccc3c(N)ncnn23)[C@H](OC(=O)C(C)C)[C@@H]1OC(=O)C(C)C)Oc1ccc(C(C)(C)C)cc1 (single isomer, unassigned) [Example 18a] |  |  | 312 nM | 22.2 nM | EC50 ([1]; human respiratory syncytial virus, HEp-2, 96 h, Table 1): 65.4 nM
9 | CC(C)C(=O)O[C@H]1[C@@H](OC(=O)C(C)C)[C@](C#N)(c2ccc3c(N)ncnn23)O[C@@H]1COP(=O)(N[C@@H](C)C(=O)OC1CCC1)Oc1ccc(C(C)(C)C)cc1 (single isomer, unassigned) [Example 50a] | 38.8 nM | 27.5 nM |  |  | EC50 [3, 9]: 21.3 nM
10 | C[C@H](NP(=O)(OC[C@H]1O[C@@](C#N)(c2ccc3c(N)ncnn23)[C@H](O)[C@@H]1O)Oc1ccc(C(C)(C)C)cc1)C(=O)OC1CCC1 (single isomer, unassigned) [Example 31a] |  |  | 92.3 nM | 6.33 nM | EC50 [1, 6]: 29.2 nM
11 | CC(C)C(=O)O[C@H]1[C@@H](OC(=O)C(C)C)[C@](C#N)(c2ccc3c(N)ncnn23)O[C@@H]1COP(=O)(N[C@@H](C)C(=O)OC1CCC1)Oc1cccc2ccccc12 (single isomer, unassigned) [Example 55a] |  | 19.9 nM | 104 nM |  | EC50 [3, 8]: 7.09 nM
12 | CCOC(=O)[C@H](C)NP(=O)(OC[C@H]1O[C@@](C#N)(c2ccc3c(N)ncnn23)[C@H](OC(C)=O)[C@@H]1OC(C)=O)Oc1ccc(C23CC(C2)C3)cc1 (single isomer, unassigned) [Example 42a] | 121 nM |  |  | 9.56 nM | EC50 [1, 6]: 68.3 nM
13 | CC(C)COC(=O)[C@H](C)NP(=O)(OC[C@H]1O[C@@](C#N)(c2ccc3c(N)ncnn23)[C@H](OC(=O)C(C)C)[C@@H]1OC(=O)C(C)C)Oc1ccc(C(C)(C)C)cc1 (stereo partly drawn) [Example 122, (2R,3R,4R,5R)-2-(4-aminopyrrolo[2,1-f][1,2,4]triazin-7-yl)-5-((((4-(tert-butyl)phenoxy)(((S)-1-isobutoxy-1-oxopropan-2-yl)amino)phosphoryl)oxy)methyl)-2-cyanotetrahydrofuran-3,4-diyl bis(2-methylpropanoate)] |  |  | 167 nM | 8.73 nM | EC50 [3, 8]: 16.4 nM
14 | CCC(=O)O[C@H]1[C@@H](OC(=O)CC)[C@](C#N)(c2ccc3c(N)ncnn23)O[C@@H]1COP(=O)(N[C@@H](C)C(=O)OC1CCC1)Oc1ccc(C(C)(C)C)cc1 (single isomer, unassigned) [Example 32a] | 157 nM |  |  | 16.7 nM | EC50 [1, 6]: 25.4 nM
15 | CC(C)C(=O)O[C@H]1[C@@H](OC(=O)C(C)C)[C@](C#N)(c2ccc3c(N)ncnn23)O[C@@H]1COP(=O)(N[C@@H](C)C(=O)OC1CCC1)Oc1ccc(C(C)(C)C)cc1 (single isomer, unassigned) [Example 50b] | 239 nM | 5.36 nM |  |  | EC50 [3, 9]: 8.52 nM
16 | CCOC(=O)[C@H](C)NP(=O)(OC[C@H]1O[C@@](C#N)(c2ccc3c(N)ncnn23)[C@H](OC(C)=O)[C@@H]1OC(C)=O)Oc1ccc(C23CC(C2)C3)cc1 (single isomer, unassigned) [Example 42b] | 51.3 nM | 8 nM |  |  | EC50 ([1]; Table 3): 68.8 nM
17 | CC(C)C(=O)O[C@H]1[C@@H](OC(=O)C(C)C)[C@](C#N)(c2ccc3c(N)ncnn23)O[C@@H]1COP(=O)(N[C@@H](C)C(=O)OC1CCC1)Oc1ccccc1 (single isomer, unassigned) [Example 21b] | 191 nM | 33.1 nM |  |  | EC50 ([1]; Table 1): 34.7 nM
18 | COC(C)(C)COC(=O)[C@H](C)NP(=O)(OC[C@H]1O[C@@](C#N)(c2ccc3c(N)ncnn23)[C@H](OC(=O)C(C)C)[C@@H]1OC(=O)C(C)C)Oc1ccc(C(C)(C)C)cc1 (stereo partly drawn) [Example 116, (2R,3R,4R,5R)-2-(4-aminopyrrolo[2,1-f][1,2,4]triazin-7-yl)-5-((((4-(tert-butyl)phenoxy)(((S)-1-(2-methoxy-2-methylpropoxy)-1-oxopropan-2-yl)amino)phosphoryl)oxy)methyl)-2-cyanotetrahydrofuran-3,4-diyl bis(2-methylpropanoate)] |  |  | 56 nM | 25 nM | EC50 [3, 8]: 11.2 nM
19 | C[C@H](NP(=O)(OC[C@H]1O[C@@](C#N)(c2ccc3c(N)ncnn23)[C@H](O)[C@@H]1O)Oc1ccc(C(C)(C)C)cc1)C(=O)OC1CC(C)(C)C1 (stereo partly drawn) [Example 93, 3,3-dimethylcyclobutyl ((((2R,3S,4R,5R)-5-(4-aminopyrrolo[2,1-f][1,2,4]triazin-7-yl)-5-cyano-3,4-dihydroxytetrahydrofuran-2-yl)methoxy)(4-(tert-butyl)phenoxy)phosphoryl)-L-alaninate] |  |  | 123 nM | 4.43 nM | EC50 [1, 6]: 67.6 nM
20 | CCC(C)(C)CCOC(=O)[C@H](C)NP(=O)(OC[C@H]1O[C@@](C#N)(c2ccc3c(N)ncnn23)[C@H](OC(C)=O)[C@@H]1OC(C)=O)Oc1ccccc1 (stereo partly drawn) [Example 106b, (2R,3R,4R,5R)-2-(4-aminopyrrolo[2,1-f][1,2,4]triazin-7-yl)-2-cyano-5-((((((S)-1-((3,3-dimethylpentyl)oxy)-1-oxopropan-2-yl)amino)(phenoxy)phosphoryl)oxy)methyl)tetrahydrofuran-3,4-diyl Diacetate] | 97.8 nM |  |  | 12.2 nM | EC50 ([1]; Table 3): 34.2 nM
21 | CC(C)C(=O)O[C@H]1[C@@H](OC(=O)C(C)C)[C@](C#N)(c2ccc3c(N)ncnn23)O[C@@H]1COP(=O)(N[C@@H](C)C(=O)OC1CCC1)Oc1cccc2ccccc12 (single isomer, unassigned) [Example 55b] | 108 nM | 6.12 nM |  |  | EC50 [3, 9]: 7.44 nM
22 | CC(C)C(=O)O[C@H]1[C@@H](OC(=O)C(C)C)[C@](C#N)(c2ccc3c(N)ncnn23)O[C@@H]1COP(=O)(N[C@@H](C)C(=O)OCC1CCC1)Oc1ccccc1 (stereo partly drawn) [Example 117, (2R,3R,4R,5R)-2-(4-aminopyrrolo[2,1-f][1,2,4]triazin-7-yl)-2-cyano-5-((((((S)-1-(cyclobutylmethoxy)-1-oxopropan-2-yl)amino)(phenoxy)phosphoryl)oxy)methyl)tetrahydrofuran-3,4-diyl bis(2-methylpropanoate)] |  |  | 192 nM | 22.1 nM | EC50 [3, 8]: 11 nM
